Values after ≈ are worked out from the molar mass of the structure shown. Bounds are passed on as bounds.

Data set [1] concerns the target T1, glucocerebrosidase (Gcase) (Homo sapiens, UniProt P04062).
T1 construct: micellar solution containing 10 nM GCase and 100 nM saposin C (Enzo ALX-201-262-C050)
T1 sequence (P04062 40-536): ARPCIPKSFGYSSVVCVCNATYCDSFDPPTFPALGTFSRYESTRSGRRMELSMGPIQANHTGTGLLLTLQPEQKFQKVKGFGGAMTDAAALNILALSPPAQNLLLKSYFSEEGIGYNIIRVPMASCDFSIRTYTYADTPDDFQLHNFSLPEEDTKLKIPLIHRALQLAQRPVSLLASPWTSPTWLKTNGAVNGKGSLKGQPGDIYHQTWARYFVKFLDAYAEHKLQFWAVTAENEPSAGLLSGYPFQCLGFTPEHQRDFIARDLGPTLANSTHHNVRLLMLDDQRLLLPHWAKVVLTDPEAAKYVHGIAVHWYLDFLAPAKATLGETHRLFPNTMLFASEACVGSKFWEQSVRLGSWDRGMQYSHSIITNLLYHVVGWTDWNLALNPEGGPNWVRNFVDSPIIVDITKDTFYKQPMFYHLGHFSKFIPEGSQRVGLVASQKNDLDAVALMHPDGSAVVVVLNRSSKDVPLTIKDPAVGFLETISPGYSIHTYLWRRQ
Put plainly: Glucocerebrosidase (Gcase) activation assay, 4-methylumbelliferyl-beta-D-glucopyranoside substrate, with saposin C. The format is biochemical. As to conditions: for activation at 0.1 µM: read-out: Percent Gcase Activation 0.1 μM Test Compound; for activation at 1 µM: read-out: Percent Gcase Activation 1 μM Test Compound. The method, then:
A 484 μL aliquot of a 1.0 mg/mL solution of phosphatidylserine (PS) (Sigma P7769) in chloroform was evaporated under a stream of nitrogen for 1 hour. The lipid film was dissolved over 4 minutes of vigorous vortexing in 40 mL of 176 mM K2HPO4/50 mM citric acid (pH 4.7) containing 7.5 μL of triton X-100, resulting in a mixed micellar preparation with a composition of 0.32 mM triton and 0.37 mol % PS. 4-Methylumbelliferyl-beta-D-glucopyranoside (ACROS-337025000) was dissolved in the micellar solution to a final concentration of 2 mM for use as the reaction substrate.
Test compounds were diluted to the desired concentrations with dimethylsulfoxide (DMSO) from 10 mM stocks, and 0.41 μL of the DMSO compound mixture was added to 100 μL of micellar solution containing 10 nM GCase and 100 nM saposin C (Enzo ALX-201-262-C050). Pre-incubation was allowed to occur for 30 minutes at room temperature, after which the reaction was initiated by combining 25 μL of substrate solution with 25 μL of compound/GCase/saposin mixture. The reaction proceeded for 15 minutes at room temperature and was stopped by adding 150 μL of 1M glycine, pH 12.5. The endpoint of the reaction was monitored by measuring fluorescence intensity (excitation: 365 nm; emission: 440 nm) on a SpectraMax i3 instrument (Molecular Devices). Test compounds were screened at 1.0 and 0.1 μM final concentration, and subsequent 8-point dose response curves were obtained using 3-fold dilutions from a maximum final concentration of 5 μM.

Data set [2] in a line: Compound solubility in water. The format is physicochemical.

A word on the solubility: it is the dissolved amount per volume that the medium holds. Read a high solubility as much dissolved substance. Turning to `Cc1cccc2ncc(C(=O)Nc3ccc4c(c3)CN(C)C4)c(=O)n12`, in data set [1], the activation at 0.1 µM was less than 5% and the activation at 1 µM is less than 5%. Besides, the solubility in data set [2] amounted to 35.4 µg/mL (≈ 106 µM).
As for `Cc1cccc2ncc(C(=O)NC3CCC(C)CC3)c(=O)n12` (stereo not shown), in data set [1], the activation at 0.1 µM is less than 5% and the activation at 1 µM was greater than 20%. Besides, the solubility in data set [2] was determined as 18.7 µg/mL (≈ 62.5 µM).
For `C[C@H](NC(=O)c1cnc2n(c1=O)CCS2)c1ccccc1`, in data set [1], the activation at 0.1 µM lay within 5 to 20% and the activation at 1 µM was in the range of 5 to 20%. For the same compound, in data set [2], the solubility stood at 37.2 µg/mL (≈ 123 µM).
On to `CCc1ccc(NC(=O)c2cnc3n(c2=O)CCS3)cc1`, for which, in data set [1], the activation at 0.1 µM is less than 5% and the activation at 1 µM was greater than 20%. Further, the solubility in data set [2] amounted to 5.1 µg/mL (≈ 16.9 µM).
The matching figures for `Cc1cccc2ncc(C(=O)Nc3ccc(N4CCCCC4)cc3)c(=O)n12`: less than 5%, less than 5% and 1.4 µg/mL (≈ 3.86 µM).
The matching figures for `CCCCc1ccc(NC(=O)c2cnc3cccc(C)n3c2=O)cc1`: 5 to 20%, greater than 20% and 0.05 µg/mL (≈ 0.149 µM).
As for `Cc1cccc2ncc(C(=O)Nc3ccc4c(c3)OCCO4)c(=O)n12`, in data set [1], the activation at 0.1 µM is less than 5% and the activation at 1 µM lay within 5 to 20%. Also, the solubility in data set [2] worked out at 0.7 µg/mL (≈ 2.08 µM).
Consider `Cc1cccc2ncc(C(=O)NC3CCCCCC3)c(=O)n12`, for which, in data set [1], the activation at 0.1 µM is less than 5% and the activation at 1 µM was greater than 20%. In data set [2], this compound registered a solubility of 9.3 µg/mL (≈ 31.1 µM).
`CCC(C)c1ccc(NC(=O)c2cnc3cccc(C)n3c2=O)cc1` (stereo not shown): in data set [1], the activation at 0.1 µM fell in the range of 5 to 20% and the activation at 1 µM is greater than 20%. This compound registered a solubility in data set [2] of 1 µg/mL (≈ 2.98 µM).
The matching figures for `CCCCCO[C@H]1CC[C@H](NC(=O)c2cnc3n(c2=O)CCS3)CC1`: less than 5%, 5 to 20% and 8.4 µg/mL (≈ 23 µM).
The corresponding values for `Cc1cccc2ncc(C(=O)NC3CCCc4ccccc43)c(=O)n12` (stereo not shown) are 5 to 20%, greater than 20% and 13.9 µg/mL (≈ 41.7 µM).
The matching figures for `O=C(Nc1ccc2c(c1)CCC2)c1cnc2n(c1=O)CCS2`: less than 5%, 5 to 20% and 0.3 µg/mL (≈ 0.957 µM).
Turning to `CCC(C)c1ccc(NC(=O)c2cnc3ccc(C)cn3c2=O)cc1` (stereo not shown), in data set [1], the activation at 0.1 µM is less than 5% and the activation at 1 µM was in the range of 5 to 20%. Besides, the solubility in data set [2] stood at 0.05 µg/mL (≈ 0.149 µM).
The corresponding values for `CN1Cc2ccc(NC(=O)c3cnc4n(c3=O)CCS4)cc2C1` are less than 5%, 5 to 20% and 32.4 µg/mL (≈ 98.7 µM).
As for `CC(Cc1ccc(Cl)cc1)NC(=O)c1cnc2n(c1=O)CCS2` (stereo not shown), in data set [1], the activation at 0.1 µM was less than 5% and the activation at 1 µM lay in the range of 5 to 20%. The solubility in data set [2] came out at 16.7 µg/mL (≈ 47.7 µM).
In the case of `Cc1cccc2ncc(C(=O)Nc3ccc(-n4ccnc4)cc3)c(=O)n12`, in data set [1], the activation at 0.1 µM is less than 5% and the activation at 1 µM was in the range of 5 to 20%. In data set [2], this compound came in with a solubility of 1.2 µg/mL (≈ 3.47 µM).
The matching figures for `CCc1ccc(CNC(=O)c2cnc3sccn3c2=O)cc1`: less than 5%, 5 to 20% and 17 µg/mL (≈ 54.2 µM).
The matching figures for `Cc1cccc2ncc(C(=O)NC3CCc4ccccc4C3)c(=O)n12` (stereo not shown): less than 5%, 5 to 20% and 4.3 µg/mL (≈ 12.9 µM).
In the case of `C[C@@H](NC(=O)c1cnc2n(c1=O)CCS2)c1ccccc1`, in data set [1], the activation at 0.1 µM was less than 5% and the activation at 1 µM was less than 5%. For the same compound, in data set [2], the solubility is 36.8 µg/mL (≈ 122 µM).
Take `C#Cc1ccc(NC(=O)c2cnc3sccn3c2=O)cc1`: in data set [1], the activation at 0.1 µM was 5 to 20% and the activation at 1 µM was greater than 20%. In data set [2], this compound showed a solubility of 3.4 µg/mL (≈ 11.5 µM).
The matching figures for `CCC(C)c1ccc(NC(=O)c2cnc3ccccn3c2=O)cc1` (stereo not shown): less than 5%, 5 to 20% and 0.3 µg/mL (≈ 0.933 µM).
On to `Cc1csc2ncc(C(=O)Nc3ccc(C(C)C)cc3)c(=O)n12`, for which, in data set [1], the activation at 0.1 µM was 5 to 20% and the activation at 1 µM is greater than 20%. The same compound returned a solubility in data set [2] of 0.5 µg/mL (≈ 1.53 µM).
The corresponding values for `CCC(C)c1ccc(NC(=O)c2cnc3n(c2=O)CCS3)cc1` (stereo not shown) are 5 to 20%, greater than 20% and 0.3 µg/mL (≈ 0.911 µM).
As for `CCCCC1CCC(NC(=O)c2cnc3cccc(C)n3c2=O)CC1` (stereo not shown), in data set [1], the activation at 0.1 µM is 5 to 20% and the activation at 1 µM is greater than 20%. The amount in solution in data set [2] (solubility) came to 0.4 µg/mL (≈ 1.17 µM).
Take `CCN1CCN(c2ccc(NC(=O)c3cnc4n(c3=O)CCS4)cc2)CC1`: in data set [1], the activation at 0.1 µM was less than 5% and the activation at 1 µM was in the range of 5 to 20%. Besides, the concentration in solution in data set [2] (solubility) came to 34.8 µg/mL (≈ 90.3 µM).
The corresponding values for `O=C(NC1CCc2ccccc21)c1cnc2n(c1=O)CCS2` (stereo not shown) are less than 5%, 5 to 20% and 17.6 µg/mL (≈ 56.2 µM).
The matching figures for `O=C(NC1CCCCC12CCCCO2)c1cnc2n(c1=O)CCS2` (stereo not shown): less than 5%, less than 5% and 37.2 µg/mL (≈ 106 µM).
The matching figures for `CC(C)c1ccc(NC(=O)c2cnc3sccn3c2=O)cn1`: less than 5%, less than 5% and 13.8 µg/mL (≈ 43.9 µM).
Consider `CCC1CCC(NC(=O)c2cnc3sccn3c2=O)CC1` (stereo not shown), for which, in data set [1], the activation at 0.1 µM fell in the range of 5 to 20% and the activation at 1 µM was greater than 20%. Moreover, the solubility in data set [2] came out at 4.9 µg/mL (≈ 16 µM).
Turning to `O=C(Nc1ccc(N2CCCCC2)cc1)c1cnc2n(c1=O)CCS2`, in data set [1], the activation at 0.1 µM is less than 5% and the activation at 1 µM is less than 5%. In addition, in data set [2], the concentration in solution (solubility) came to 4 µg/mL (≈ 11.2 µM).
As for `O=C(NC1CCCC2(CCCCO2)C1)c1cnc2n(c1=O)CCS2` (stereo not shown), in data set [1], the activation at 0.1 µM is less than 5% and the activation at 1 µM is less than 5%. Further, the concentration in solution in data set [2] (solubility) was 36 µg/mL (≈ 103 µM).
Turning to `O=C(NC1CCOCC1)c1cnc2n(c1=O)CCS2`, in data set [1], the activation at 0.1 µM was less than 5% and the activation at 1 µM fell in the range of 5 to 20%. The solubility in data set [2] worked out at 26.3 µg/mL (≈ 93.5 µM).
`O=C(NCCOc1ccccc1)c1cnc2n(c1=O)CCS2`: in data set [1], the activation at 0.1 µM is less than 5% and the activation at 1 µM fell in the range of 5 to 20%.
The corresponding values for `Cc1ccn2c(=O)c(C(=O)NC3CCc4ccccc4C3)cnc2c1` (stereo not shown) are less than 5% and 5 to 20%.
With `Cc1ccc(NC(=O)c2cnc3scc(C)n3c2=O)cc1C`, in data set [1], the activation at 1 µM lay in the range of 5 to 20%.
Regarding `O=C(NC1CC2CCC1C2)c1cnc2n(c1=O)CCS2` (stereo not shown), in data set [1], the activation at 0.1 µM is less than 5% and the activation at 1 µM is less than 5%.
With `Cc1ccc(NC(=O)c2cnc3n(c2=O)CCS3)cc1-c1ncco1`, in data set [1], the activation at 0.1 µM is less than 5% and the activation at 1 µM is 5 to 20%.
With `Cc1ccc(NC(=O)c2cnc3sc(C)cn3c2=O)cc1`, the activation at 1 µM in data set [1] lay in the range of 5 to 20%.
Still for that read-out and setting: then `Cc1ccc(NC(=O)c2cnc3scc(C)n3c2=O)cc1F`, with 5 to 20%.
As to `COc1cccc(NC(=O)c2cnc3scc(C)n3c2=O)c1`, the activation at 1 µM in data set [1] was in the range of 5 to 20%.
With `O=C(Nc1ccc(-c2cccs2)cc1)c1cnc2n(c1=O)CCS2`, in data set [1], the activation at 0.1 µM was 5 to 20% and the activation at 1 µM lay in the range of 5 to 20%.
Regarding `O=C(Nc1ccc(-c2ccco2)cc1)c1cnc2n(c1=O)CCS2`, in data set [1], the activation at 0.1 µM lay within 5 to 20% and the activation at 1 µM was in the range of 5 to 20%.

The values are drawn from patent US20190112316A1, “THIAZOLO[3,2-A] PYRIMIDINONE AND OTHER HETEROBICYCLIC PYRIMIDINONE COMPOUNDS FOR USE IN MEDICAL THERAPY” (priority 2015, published 2019).
